Results from patent US20100234238A1, “METHOD FOR PROFILING KINASE INHIBITORS” (Janssen Pharmaceutica N V, priority 2006, published 2010).

What was measured:
[1] = system: xenograft tumors; experiment: Response of subcutaneous xenograft tumors to MTKI in vivo; parameters: species or system nude immuno-compromised mice; conditions: for response status: response to MTKI in vivo
Description: To explore whether a similar approach allows for the classification of responder and non-responder tumors, the same strategy as above was applied to 12 different xenograft tumors, which were subcutaneously grown in nude immuno-compromised mice from human cancer cell lines. […] Lysates were made from homogenized frozen tumor blocks and analyzed in the absence or presence of 5 μM MTKI, as before.

[2] = biological target: Her2 (Homo sapiens, UniProt P04626); experiment: Her2 inhibition; assay type: biochemical
[3] = system: 27 cell lines, representing diverse cancer cell types; experiment: Inhibition of proliferation of cell lines in vitro (response status); assay type: cell-based; conditions: response to MTKI
Description: It was tested whether the Pamchip peptide arrays are a useful tool to predict the response of a cell line to the multi-targeted kinase inhibitor, MTKI. MTKI inhibits the proliferation of a range of cell lines in vitro with widely varying IC50's. The lysates prepared from these 27 cell lines, representing diverse cancer cell types, were profiled on the peptide arrays in the absence or presence of 5 μM MTKI, in 6 replicates for each condition. In this panel, 13 cell lines were defined as responder cell lines (IC50<3 μM; cell lines are ordered according to increasing IC50 in Example 1, whereas 14 cell lines are classified as ‘non-responder’ cell lines (IC50>10 μM). Intermediary cell lines and cell lines with highly variable IC50 measurements were omitted from the analysis. The experiment included the highly responsive H3255 lung cancer cell line, which overexpresses mutant EGFR L858R. This mutant variant is highly responsive to MTKI, which is an ATP-competitive compound that binds to the active conformation of EGFR (similar to erlotinib and gefitinib). Accordingly, the most profound changes induced by MTKI in lysate kinase activity can be observed for this highly responsive cell line. To identify those peptides for which the inhibition of phosphorylation by MTKI correlates well with the response status of the cell line from which the lysate was prepared, a statistical mixed-model was set up to identify those peptides that are most likely to change after MTKI treatment in responder cell lysates compared to non-responder lysates, taken into account the inter-replicate variability (see the material and methods section for a more detailed description of the statistical test). […] To illustrate that the inhibition of the phosphorylation of these peptides in a given lysate does indeed correlate with the response of the corresponding cell line to MTKI, the following cut-off was chosen to classify responders and non-responders: minimally 4 peptides out of the 16 peptide list should be inhibited with a ratio of less than 0.8 (more than 20% inhibition) to classify as a responder. Applying this rule to all 27 cell lines indicates an overall classification accuracy of 82% (with 78% sensitivity, and 86% specificity). […] Note that the use of these […] peptides as a classification tool can be optimized according to the required sensitivity and specificity.

[4] = system: 27 cell lines, representing diverse cancer cell types; experiment: as above; assay type: cell-based; parameters: key: R: A responder is predicted when minimally 4 peptides have a ratio <0.8; NR = Non-Responder to MTKI; conditions: MTKI
Description: It was tested whether the Pamchip peptide arrays are a useful tool to predict the response of a cell line to the multi-targeted kinase inhibitor, MTKI. MTKI inhibits the proliferation of a range of cell lines in vitro with widely varying IC50's. The lysates prepared from these 27 cell lines, representing diverse cancer cell types, were profiled on the peptide arrays in the absence or presence of 5 μM MTKI, in 6 replicates for each condition. In this panel, 13 cell lines were defined as responder cell lines (IC50<3 μM; cell lines are ordered according to increasing IC50 in Example 1, whereas 14 cell lines are classified as ‘non-responder’ cell lines (IC50>10 μM). Intermediary cell lines and cell lines with highly variable IC50 measurements were omitted from the analysis. The experiment included the highly responsive H3255 lung cancer cell line, which overexpresses mutant EGFR L858R. This mutant variant is highly responsive to MTKI, which is an ATP-competitive compound that binds to the active conformation of EGFR (similar to erlotinib and gefitinib). Accordingly, the most profound changes induced by MTKI in lysate kinase activity can be observed for this highly responsive cell line. […]

[5] = biological target: EGFR L858R (Homo sapiens, UniProt P00533, L858R); experiment: IC50 on mutant EGFR; assay type: biochemical
[6] = system: tyrosine kinase activity in cell line lysates; experiment: Peptide array profiling of 9 cell line lysates in the presence of MTKI or Tarceva; assay type: biochemical; conditions: 5 μM
Description: To test whether other EGFR inhibitors, related to MTKI, such as Tarceva (erlotinib; OSI pharmaceuticals), are also amenable to this response prediction methodology, 9 cell lines were profiled in the presence of MTKI, or Tarceva (5 μM in both cases). […] The value of the previously derived MTKI prediction peptides is illustrated in Tables 6A to C. Based on these peptides also response to Tarceva can be predicted with identical accuracy as for MTKI (and with the same false predictions, in casu H2009 and MOLT4).

EGFR L858R, sequence (P00533 25-1210 L858R): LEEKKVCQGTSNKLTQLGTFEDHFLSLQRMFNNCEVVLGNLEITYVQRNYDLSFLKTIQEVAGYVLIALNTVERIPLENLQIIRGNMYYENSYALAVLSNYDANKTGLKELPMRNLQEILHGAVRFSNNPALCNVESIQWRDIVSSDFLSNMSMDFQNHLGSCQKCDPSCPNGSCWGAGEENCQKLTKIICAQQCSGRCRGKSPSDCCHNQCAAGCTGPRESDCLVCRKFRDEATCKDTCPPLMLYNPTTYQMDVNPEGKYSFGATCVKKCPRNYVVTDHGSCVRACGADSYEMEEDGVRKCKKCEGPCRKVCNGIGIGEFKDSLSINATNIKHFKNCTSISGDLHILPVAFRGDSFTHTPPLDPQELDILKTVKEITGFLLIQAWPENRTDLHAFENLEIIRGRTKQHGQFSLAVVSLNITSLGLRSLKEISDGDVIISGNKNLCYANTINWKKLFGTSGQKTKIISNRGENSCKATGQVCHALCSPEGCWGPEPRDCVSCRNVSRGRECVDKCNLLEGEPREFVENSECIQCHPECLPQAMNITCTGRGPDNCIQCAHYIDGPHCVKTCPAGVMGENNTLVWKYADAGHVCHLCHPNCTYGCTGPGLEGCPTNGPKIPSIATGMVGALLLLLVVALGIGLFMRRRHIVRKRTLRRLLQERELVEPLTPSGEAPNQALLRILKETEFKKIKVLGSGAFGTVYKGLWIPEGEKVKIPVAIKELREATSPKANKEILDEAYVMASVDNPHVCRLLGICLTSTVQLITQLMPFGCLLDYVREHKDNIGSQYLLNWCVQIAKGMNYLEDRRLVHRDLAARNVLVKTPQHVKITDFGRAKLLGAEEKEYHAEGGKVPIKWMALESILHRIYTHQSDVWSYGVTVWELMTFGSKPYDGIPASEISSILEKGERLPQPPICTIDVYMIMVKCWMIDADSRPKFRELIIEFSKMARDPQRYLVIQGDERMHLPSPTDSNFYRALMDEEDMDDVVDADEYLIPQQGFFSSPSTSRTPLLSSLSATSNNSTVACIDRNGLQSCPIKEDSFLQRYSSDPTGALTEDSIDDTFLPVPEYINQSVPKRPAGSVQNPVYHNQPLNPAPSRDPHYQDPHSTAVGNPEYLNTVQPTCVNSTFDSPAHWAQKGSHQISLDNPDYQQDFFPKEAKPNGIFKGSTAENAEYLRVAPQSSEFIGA
Her2, sequence (P04626 23-1255): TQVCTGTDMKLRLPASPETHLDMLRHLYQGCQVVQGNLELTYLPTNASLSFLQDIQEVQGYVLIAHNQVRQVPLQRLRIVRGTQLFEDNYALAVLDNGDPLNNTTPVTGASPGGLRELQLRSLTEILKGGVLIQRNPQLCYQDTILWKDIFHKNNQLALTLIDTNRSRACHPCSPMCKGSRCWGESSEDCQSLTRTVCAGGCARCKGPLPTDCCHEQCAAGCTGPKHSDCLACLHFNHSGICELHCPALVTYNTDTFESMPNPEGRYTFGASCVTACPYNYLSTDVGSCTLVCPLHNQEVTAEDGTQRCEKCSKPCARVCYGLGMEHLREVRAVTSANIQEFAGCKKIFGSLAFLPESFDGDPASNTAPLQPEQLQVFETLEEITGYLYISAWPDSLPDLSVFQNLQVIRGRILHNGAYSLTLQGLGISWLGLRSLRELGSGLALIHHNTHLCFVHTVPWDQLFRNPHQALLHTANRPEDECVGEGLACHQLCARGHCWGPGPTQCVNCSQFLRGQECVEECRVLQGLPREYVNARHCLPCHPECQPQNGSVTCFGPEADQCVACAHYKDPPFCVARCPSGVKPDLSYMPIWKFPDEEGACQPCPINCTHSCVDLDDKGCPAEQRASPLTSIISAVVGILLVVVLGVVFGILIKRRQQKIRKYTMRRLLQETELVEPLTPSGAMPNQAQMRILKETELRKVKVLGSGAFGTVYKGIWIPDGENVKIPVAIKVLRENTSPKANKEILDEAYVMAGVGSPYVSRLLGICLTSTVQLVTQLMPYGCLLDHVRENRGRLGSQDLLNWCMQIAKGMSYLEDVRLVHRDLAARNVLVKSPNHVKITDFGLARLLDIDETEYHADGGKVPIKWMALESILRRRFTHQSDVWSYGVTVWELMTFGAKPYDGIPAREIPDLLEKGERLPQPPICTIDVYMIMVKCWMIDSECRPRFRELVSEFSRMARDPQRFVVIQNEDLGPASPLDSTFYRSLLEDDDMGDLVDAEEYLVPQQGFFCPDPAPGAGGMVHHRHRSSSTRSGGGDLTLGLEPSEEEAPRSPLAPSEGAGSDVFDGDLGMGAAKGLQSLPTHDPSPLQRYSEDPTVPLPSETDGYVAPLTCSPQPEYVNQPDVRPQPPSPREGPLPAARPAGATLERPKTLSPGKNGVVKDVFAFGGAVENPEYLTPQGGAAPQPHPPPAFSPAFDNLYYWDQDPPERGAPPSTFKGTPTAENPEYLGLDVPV

COc1cc2ncnc3c2cc1OCCCCCN(C)Cc1ccc(Br)cc1N3 [MTKI, 4,6-ethanediylidenepyrimido[4,5-b][6,1,12]benzoxadiazacyclopentadecine, 17-bromo-8,9,10,11,12,13,14,19-octahydro-20-methoxy-13-methyl-]
response status ([1]; A431 xenograft tumor): R
response status ([1]; BT474 xenograft tumor): R
responsiveness of xenograft tumors in vivo ([1]; DU145, SUM149 and BT474 tumors): potent inhibition of tumor growth
response status ([1]; DU145 xenograft tumor): R
response status ([1]; H322 xenograft tumor): R
responsiveness of xenograft tumors in vivo ([1]; H460 and H441, HT29, PC3, SKOV3, H1703 tumors): non-responsive
responsiveness of xenograft tumors in vivo ([1]; H3255, A431 and H322 tumors): abrupt tumor regression
response status ([1]; H3255 xenograft tumor): R
response status ([1]; SUM149 xenograft tumor): R
inhibition of Her2 compared to Tarceva [2]: better inhibitor than Tarceva
IC50 ([3]; BT474OD cell line): < 3 µM
IC50 ([3]; COLO 699, Colo699 cell line): < 3 µM
IC50 ([3]; HEK239, HEK239 cell line): > 10 µM
IC50 ([3]; HT1373 cell line): > 10 µM
IC50 ([3]; Homo sapiens, A-431, A431 cell line): < 3 µM
IC50 ([3]; Homo sapiens, DU-145, DU145 cell line): < 3 µM
IC50 ([3]; Homo sapiens, GTL 16, GTL16 cell line): > 10 µM
IC50 ([3]; Homo sapiens, MCF7, MCF7 cell line): > 10 µM
IC50 ([3]; Homo sapiens, MDA-MB-435S, MDAMB435s cell line): > 10 µM
IC50 ([3]; Homo sapiens, MKN-45, MKN45 cell line): > 10 µM
IC50 ([3]; Homo sapiens, MOLT-4, MOLT4 cell line): > 10 µM
IC50 ([3]; Homo sapiens, NCI-H23, H23 cell line): > 10 µM
IC50 ([3]; Homo sapiens, NCI-H1650, H1650 cell line): > 10 µM
IC50 ([3]; Homo sapiens, NCI-H2009, H2009 cell line): < 3 µM
IC50 ([3]; Homo sapiens, NCI-H2122, H2122 cell line): < 3 µM
IC50 ([3]; Homo sapiens, NCI-H3255, H3255 cell line): < 3 µM
IC50 ([3]; Homo sapiens, NCI-N87, NCI-N87 cell line): < 3 µM
IC50 ([3]; Homo sapiens, SH-SY5Y, SHSY5Y cell line): > 10 µM
IC50 ([3]; Homo sapiens, SK-BR-3, SKBR3 cell line): < 3 µM
IC50 ([3]; Homo sapiens, SNU-5, SNU5 cell line): > 10 µM
IC50 ([3]; Homo sapiens, U-118-MG, U118MG cell line): > 10 µM
IC50 ([3]; MDA231PAR cell line): > 10 µM
IC50 ([3]; NCI-H322, H322 cell line): < 3 µM
IC50 ([3]; RSJSA1 cell line): > 10 µM
IC50 ([3]; SNU-484, SNU484 cell line): < 3 µM
IC50 ([3]; SUM149, SUM149 cell line): < 3 µM
IC50 ([3]; SUM159, SUM159 cell line): < 3 µM
response status ([4]; GTL16 cell line): NR
response status ([4]; MOLT4 cell line): NR
IC50 on EGFR 1858R compared to Tarceva [5]: lower IC50
potency in lysate inhibition profile compared to Tarceva ([6]; H3255 lysate): slightly more potent
potency in lysate inhibition profile compared to Tarceva ([6]; N87 lysate): more potent
